Measured values from US10849904B2, “Methods for treatment of retinal disease by photoreceptor gene expression modulation” (University of Washington, priority 2015, dated 2020).

System: retinas of adult mice
Assay: Intravitreal injection in adult mice, qPCR and Western blot
Assay type: in vivo, mouse
Description: Conditional deletion of Nr2e3 in mature photoreceptors has not been reported; however, deletion of Nrl in mature photoreceptors leads to a partial “reprogramming” of the rods: the cells have reduced rod gene expression and an increase in the expression of some cone genes. Because PR1 reduces rod gene expression, including Nrl, in rods even at late stages in their development (P12), it was postulated that PR1 might have similar effects in the retinas of adult mice. To determine if PR1 affects adult photoreceptor gene expression in vivo, intravitreal injections in one eye of an adult mouse (>P21) were made and compared expression to the other eye.
RNA was isolated using TRIzol (Invitrogen) and cDNA was synthesized using the iScript cDNA synthesis kit (Bio-Rad) following an intervening DNase treatment with RQ1 RNase-free DNase (Promega). SSO Fast (Bio-Rad) was used for quantitative real-time PCR. For analysis, values were normalized to Gapdh and ΔΔCt between DMSO and compound-treated samples was expressed as percent of DMSO treated controls (100*2^ΔΔCt). Two-way Student's t-tests were performed on ΔCt values.
Retinal explants or retinas were homogenized in lysis buffer (50 mM Tris, 100 mM NaCl, 5 mM EDTA, 0.1% SDS, 1% Triton X-100, 2.5% glycerol, and 1× protease inhibitor cocktail) and equal amounts of protein samples were loaded and run in a 4-20% SDS gel (Bio-Rad). Protein was transferred to a PVDF membrane (Thermo Fisher Scientific), blocked (5% BSA and 0.1% Tween 20 in 1×PBS) and stained with primary antibodies (Supplemental Table S2) and then HRP-conjugated secondaries (Bio-Rad) diluted in blocking solution. Signals were visualized on X-ray film with SuperSignal West Dura Extended Duration Substrate (Thermo Fisher Scientific) and quantified using ImageJ software (NIH).
For intravitreal injections, adult mice (>P21) were anesthetized with isoflurane and injected with 1.5 μl of 10 mM PR1 using a 32-gauge Hamilton needle. Postnatal pups were injected intraperitoneally (IP) with 20 μl of 50 mM PR1 or 20 μl of DMSO at P2 or P3 with a 32-gauge Hamilton needle. Timed-pregnant dams were injected IP with 100 μl of 50 mM PR1 at E14 and E17 with a BD insulin syringe.

[1] = adult mice (>P21), two intravitreal injections over four days, vs other eye
[2] = adult retinas, intravitreal injection

Cc1cc(C)cc(NC(=O)CCc2nc3sc4c(c3c(=O)[nH]2)CCCC4)c1 [PR1, N-(3,5-dimethylphenyl)-3-(4-oxo-5,6,7,8-tetrahydro-3H-[1]benzothiolo[2,3-d]pyrimidin-2-yl)propanamide]
Rho mRNA expression by qPCR [1]: decreased | rhodopsin protein by Western blot [1]: decreased | S opsin [2]: not observed | expression of the cone photoreceptor marker TRβ2 [2]: increased
